According to ChEMBL document CHEMBL1201862, “PubChem BioAssay data set” (2004):
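Step 1: Grow cells in 96-well plates. Step 2: Expose to compound for 48 hours at 5 concentrations. Step 3: Interpolate endpoints linearly; if unreached, use highest concentration. Here, GI50 denotes the concentration required for 50% inhibition of growth.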 Active and inactive are the calls of the source. No stated cut-off is given here; in the data, active = GI50 up to about 1.1 µM and inactive = higher.

Tests used:
Test in all cases: NCI tumour cell line growth inhibition, 48 h
SN12C = system: SN12C
SNB-75 = system: SNB-75
HOP-62 = system: HOP-62
HCT-15 = system: HCT-15
A549 = system: A549
RXF 393 = system: RXF 393
ACHN = system: ACHN
HT-29 = system: HT-29
SNB-19 = system: SNB-19
DLD-1 = system: DLD-1
SK-MEL-2 = system: SK-MEL-2
HCC 2998 = system: HCC 2998
KM12 = system: KM12
NCI-H460 = system: NCI-H460
KM-20L2 = system: KM-20L2
RPMI-8226 = system: RPMI-8226
SR = system: SR
BT-549 = system: BT-549
MDA-N = system: MDA-N
MDA-MB-231 = system: MDA-MB-231

| SMILES | GI50 (SN12C) | GI50 (SNB-75) | GI50 (HOP-62) | GI50 (HCT-15) | GI50 (A549) | GI50 (RXF 393) | GI50 (ACHN) | GI50 (HT-29) | GI50 (SNB-19) | GI50 (DLD-1) | GI50 (SK-MEL-2) | GI50 (HCC 2998) | GI50 (KM12) | GI50 (NCI-H460) | GI50 (KM-20L2) | GI50 (RPMI-8226) | GI50 (SR) | GI50 (BT-549) | GI50 (MDA-N) | GI50 (MDA-MB-231) |
| --- | --- | --- | --- | --- | --- | --- | --- | --- | --- | --- | --- | --- | --- | --- | --- | --- | --- | --- | --- | --- |
| CC1(C)CCCC2(C)C3C(O)CC2(C)C(O)C31 (stereo not given) | > 100 µM (inactive) | > 100 µM (inactive) | > 100 µM (inactive) | > 100 µM | > 100 µM (inactive) | > 100 µM (inactive) | > 100 µM (inactive) | > 100 µM (inactive) | > 100 µM (inactive) | > 100 µM (inactive) | > 100 µM (inactive) | > 100 µM (inactive) | > 100 µM (inactive) | > 100 µM (inactive) | > 100 µM (inactive) |  |  |  |  |  |
| O=C(Nc1cc(Cl)c(Cl)cc1Cl)C(=O)C(C(=O)c1ccc(Cl)c(Cl)c1)C1OC(=O)c2ccccc21 (stereo not given) | 21.6 µM (inactive) |  | 12.6 µM (inactive) | 19.6 µM | 28.7 µM (inactive) | 8.3 µM (inactive) | 14.5 µM (inactive) | 18.5 µM (inactive) | 15.5 µM (inactive) | 8.47 µM (inactive) | 14 µM (inactive) | 18.8 µM (inactive) | 16.6 µM (inactive) | 3.07 µM (inactive) | 17.7 µM (inactive) | 15.6 µM (inactive) | 4.39 µM (inactive) |  |  |  |
| COc1ccc(OC)c(C2Cc3cnc4nc(N)nc(N)c4c3C2)c1 (stereo not given) | 21.7 µM (inactive) | 17.4 µM (inactive) | 34.4 µM (inactive) | 29.2 µM | 41.5 µM (inactive) | 19.9 µM (inactive) | 32.6 µM (inactive) | 20.8 µM (inactive) | 38.4 µM (inactive) |  | 21.1 µM (inactive) | 26.3 µM (inactive) | 24.3 µM (inactive) | 26.5 µM (inactive) |  | 29.6 µM (inactive) | 19.4 µM (inactive) | 22.8 µM (inactive) | 25.8 µM (inactive) | 23.7 µM (inactive) |
| N#C/C(=C1\OC(=N)C(c2ccccc2)C1=O)c1ccccc1 (stereo not given) | 35 µM (inactive) | 28.3 µM (inactive) | > 100 µM (inactive) | 22.1 µM | > 100 µM (inactive) | 17.9 µM (inactive) | 16.3 µM (inactive) | 22.5 µM (inactive) | > 100 µM (inactive) | 18.3 µM (inactive) | > 52.2 µM (inactive) | 90.2 µM (inactive) | 48.2 µM (inactive) | > 100 µM (inactive) | 98.6 µM (inactive) | 22.9 µM (inactive) |  |  |  |  |
| COc1ccc(NC(=O)CC/C(CC(=O)C(C)(C)C)=N\NC(=O)C(N)=O)cc1 | > 100 µM (inactive) |  | > 100 µM (inactive) | > 100 µM | > 100 µM (inactive) | > 100 µM (inactive) | > 100 µM (inactive) | > 100 µM (inactive) | > 100 µM (inactive) | > 100 µM (inactive) | > 100 µM (inactive) | > 100 µM (inactive) | > 100 µM (inactive) | > 100 µM (inactive) | > 100 µM (inactive) |  | > 100 µM (inactive) |  |  |  |
| N#C/C(=C/c1ccc2c(c1)OCO2)C(=O)c1ccccc1 | > 100 µM (inactive) | > 100 µM (inactive) | > 100 µM (inactive) | > 100 µM | > 100 µM (inactive) |  | > 100 µM (inactive) | > 100 µM (inactive) | > 100 µM (inactive) | > 100 µM (inactive) | > 100 µM (inactive) | > 100 µM (inactive) | > 100 µM (inactive) | > 100 µM (inactive) | > 100 µM (inactive) | > 100 µM (inactive) |  |  |  |  |
| Cc1ccc(S(=O)(=O)N/N=C(/CC(=O)c2c(C)[n+]([O-])c3ccccc3[n+]2[O-])C(=O)Nc2ccc(C)c(C)c2)cc1 | 34 µM (inactive) | > 100 µM (inactive) | > 100 µM (inactive) | 48.6 µM | > 100 µM (inactive) | > 100 µM (inactive) | 25.1 µM (inactive) | 50.9 µM (inactive) | > 100 µM (inactive) | > 100 µM (inactive) | > 100 µM (inactive) | 90.4 µM (inactive) | 28.2 µM (inactive) | 41.9 µM (inactive) | > 100 µM (inactive) | 29.6 µM (inactive) |  |  |  |  |
| O=C1c2ccccc2C2(O)N(c3ccccc3)C(=S)N(c3ccccc3)C12O (stereo not given) | > 100 µM (inactive) | > 100 µM (inactive) | > 100 µM (inactive) | > 100 µM | > 100 µM (inactive) | > 100 µM (inactive) | > 100 µM (inactive) | > 100 µM (inactive) | > 100 µM (inactive) | > 100 µM (inactive) | > 100 µM (inactive) | > 100 µM (inactive) | > 100 µM (inactive) | > 100 µM (inactive) | > 100 µM (inactive) | > 100 µM (inactive) |  |  |  |  |
| Cc1ccccc1/C=C/C(=O)c1ccccc1 | > 10 µM (inactive) | 19.5 µM (inactive) | 16.7 µM (inactive) | > 10 µM | 22.5 µM (inactive) |  | 18.8 µM (inactive) | 20.1 µM (inactive) | 16.5 µM (inactive) | 22.4 µM (inactive) | > 10 µM (inactive) | 18.4 µM (inactive) | 23.3 µM (inactive) | 17.8 µM (inactive) | 17.7 µM (inactive) | 24.9 µM (inactive) | 29 µM (inactive) |  |  |  |
| COc1ccccc1NC(=O)C1=C(C)NC(C)=C(C(=O)Nc2ccccc2OC)C1C1=CC=COC1 | 60.7 µM (inactive) | 23 µM (inactive) | 27.5 µM (inactive) | 4.59 µM | 18.5 µM (inactive) |  | 9.23 µM (inactive) | 4.46 µM (inactive) | 19.1 µM (inactive) | 11.5 µM (inactive) |  | 12.3 µM (inactive) | 9.14 µM (inactive) | 3.92 µM (inactive) | 6.07 µM (inactive) | 13.2 µM (inactive) |  |  |  |  |
| COC1CC(O)C(OC(=O)c2ccccc2)C(C)O1 (stereo not given) | > 100 µM (inactive) |  | > 100 µM (inactive) | > 100 µM | > 100 µM (inactive) |  |  | > 100 µM (inactive) | > 100 µM (inactive) | > 10 µM (inactive) |  | > 100 µM (inactive) | > 100 µM (inactive) | > 100 µM (inactive) | > 100 µM (inactive) | > 100 µM (inactive) | > 100 µM (inactive) |  |  |  |
| CC1(c2cccc(C3CC4(CCC3=O)OCCCCO4)c2)OCCO1 (stereo not given) | > 100 µM (inactive) | 92.7 µM (inactive) | > 100 µM (inactive) | > 100 µM | > 100 µM (inactive) |  | > 100 µM (inactive) | > 100 µM (inactive) | > 100 µM (inactive) | > 100 µM (inactive) | > 100 µM (inactive) | > 100 µM (inactive) | > 100 µM (inactive) | > 100 µM (inactive) | > 100 µM (inactive) | > 100 µM (inactive) |  |  |  |  |
| CCc1c(OC(C)=O)c2c(NC3OCC(OC(C)=O)C(OC(C)=O)C3OC(C)=O)nc(SC)nc2oc1=O (stereo not given) | > 100 µM (inactive) | > 100 µM (inactive) | > 100 µM (inactive) | > 100 µM | > 100 µM (inactive) | > 100 µM (inactive) | > 100 µM (inactive) | > 100 µM (inactive) | > 100 µM (inactive) | > 100 µM (inactive) | > 100 µM (inactive) | > 100 µM (inactive) | > 100 µM (inactive) | > 100 µM (inactive) | > 100 µM (inactive) | > 100 µM (inactive) |  |  |  |  |
| O=C(CC(=O)N(C(=O)c1ccccc1)c1ccc(Cl)cc1)N/N=C\c1ccccc1O | > 100 µM (inactive) | 22.9 µM (inactive) | 31.8 µM (inactive) | 53.1 µM | 82 µM (inactive) | 36.8 µM (inactive) | 77.3 µM (inactive) | > 100 µM (inactive) | 30.3 µM (inactive) |  | 45.1 µM (inactive) | 33.6 µM (inactive) | 33.5 µM (inactive) | 96.2 µM (inactive) |  | > 100 µM (inactive) | 29.4 µM (inactive) | 21.1 µM (inactive) | > 100 µM (inactive) | 12.9 µM (inactive) |
| COc1ccc(OC)c2cc(C3(C)SCCCS3)ccc12 | > 100 µM (inactive) | 56.6 µM (inactive) | > 100 µM (inactive) | 88.1 µM | > 100 µM (inactive) | 20.5 µM (inactive) | > 100 µM (inactive) | 40.4 µM (inactive) | > 100 µM (inactive) | > 100 µM (inactive) | > 100 µM (inactive) | > 100 µM (inactive) | > 100 µM (inactive) | 78.3 µM (inactive) | 81.7 µM (inactive) | 69.3 µM (inactive) |  |  |  |  |
| O=C(NC1CC1)c1c(O)[nH]c(=S)[nH]c1=O | > 100 µM (inactive) | > 100 µM (inactive) | > 100 µM (inactive) | > 100 µM | > 100 µM (inactive) |  | > 100 µM (inactive) | > 100 µM (inactive) | > 100 µM (inactive) | > 100 µM (inactive) | > 100 µM (inactive) |  | > 100 µM (inactive) | > 100 µM (inactive) | > 100 µM (inactive) | > 100 µM (inactive) | > 100 µM (inactive) |  |  |  |
| COc1ncn(C2C=C(CO)C(O)C2O)c(=O)n1 (stereo not given) | > 100 µM (inactive) | > 100 µM (inactive) | > 100 µM (inactive) | > 100 µM | > 100 µM (inactive) | > 100 µM (inactive) | > 100 µM (inactive) |  | < 0.01 µM (active) | > 100 µM (inactive) | > 100 µM (inactive) | > 100 µM (inactive) | > 100 µM (inactive) | > 100 µM (inactive) | > 100 µM (inactive) | > 100 µM (inactive) |  |  |  |  |
| CCN(CC)CCCNC(=O)c1ccc([N+](=O)[O-])cc1O | > 100 µM (inactive) | > 100 µM (inactive) | > 100 µM (inactive) | > 100 µM | > 100 µM (inactive) | > 100 µM (inactive) | > 100 µM (inactive) | > 100 µM (inactive) | > 100 µM (inactive) | > 100 µM (inactive) | > 100 µM (inactive) | > 100 µM (inactive) | > 100 µM (inactive) | > 100 µM (inactive) | > 100 µM (inactive) |  |  |  |  |  |
